In patent US7883708B2, “Substance derived from basidiomycetes culture, method for producing it and its use” (Amino Up Chemical Co., Ltd., priority 1999, dated 2011):
≈ marks a conversion by molar mass, not a printed value.

Legend:
Assay in all cases: 50% growth suppression concentration (IC50) of tumor cells (MTT)
Type in all cases: cell-based
[1] = tested on: 3LL mouse lung cancer cells; settings: 48 hours, read-out: IC50 (μg/ml) 3LL
Source text: (§1) 3LL mouse lung cancer cells, Colon 26 mouse colorectal cancer cells, PC3 human prostatic cancer cells, Du145 human prostatic cells, and LNCAP human prostatic cells were used and 50% suppression concentrations (IC50) of Invention Substance 1, genistein standard preparation (produced by Sigma) and basidiomycetes culture (product obtained by cultivating basidiomycetes in the absence of isoflavones-containing material under the same conditions as in Example 1) on these cells were examined.
(§2) That is, Invention Substance 1, genistein standard preparation or basidiomycetes culture was suspended in distilled water and were autoclaved and added to the cells in a continuously varied concentration of from 1,000 μg/ml to 0.1 μg/ml. The tumor cell suspension was adjusted to 1-2×10^5 cells/well with DMEM medium containing 10% FBS and cultivated at 37° C. for 48 hours. Then, after addition of Invention Substance 1 or genistein standard preparation, the cells were further cultivated for additional 48 hours, followed by examining cell growth by the MTT method using a microplate reader. Lower numerical values indicate that 50% suppression of the growth of cultured cancer cells is possible at lower concentrations.

[2] = tested on: Colon 26 mouse colorectal cancer cells; settings: 48 hours, read-out: IC50 (μg/ml) Colon 26
Source text: as §1, §2

[3] = tested on: Du145 human prostatic cells; settings: DU-145, 48 hours, read-out: IC50 (μg/ml) Du145
Source text: as §1, §2

[4] = tested on: LNCAP human prostatic cells; settings: 48 hours, read-out: IC50 (μg/ml) LNCaP
Source text: as §1, §2

[5] = tested on: PC3 human prostatic cancer cells; settings: 48 hours, read-out: IC50 (μg/ml) PC3
Source text: as §1, §2

- IC50 [1]: 31.8 µg/mL (≈ 118 µM)
- IC50 [2]: 51.2 µg/mL (≈ 190 µM)
- IC50 [3]: 55.3 µg/mL (≈ 205 µM)
- IC50 [4]: 69.4 µg/mL (≈ 257 µM)
- IC50 [5]: 35.8 µg/mL (≈ 132 µM)
SMILES: O=c1c(-c2ccc(O)cc2)coc2cc(O)cc(O)c12 [Genistein standard preparation, genistein]
